Experimental data taken from patent publication US20060069132A1, “Azolecarboxamide herbicides” (priority 2004, published 2006).

Tests used:
giant foxtail = experiment: Test A pre-/postemergence herbicide test; format: in vivo, Setaria faberi
Method in brief: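 Both application timings were run together: directed soil spray over freshly planted seeds in sandy loam, and runoff spray onto 2–10 cm seedlings. Evaluation after ~10 days in greenhouse used a 0–100 visual scale versus untreated controls.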

large crabgrass = experiment: Test C pre-/postemergence herbicide test; format: in vivo, Digitaria sanguinalis; conditions: for Crabgrass, Large plant response rating: 500 g ai/ha
Method in brief: (§1)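 Emerged plants at the 1- to 4-leaf stage (2–18 cm), or freshly planted seeds, received test chemicals in a non-phytotoxic solvent mixture with surfactant. Response was visually scored against controls after 12 to 14 days in the greenhouse, on a 0 (no effect) to 100 (complete control) scale.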

goosegrass = experiment: Test C pre-/postemergence herbicide test; format: in vivo, Eleusine indica; conditions: for Goosegrass plant response rating: 500 g ai/ha
Method in brief: as §1

kochia = experiment: Test C pre-/postemergence herbicide test; format: in vivo, Kochia scoparia; conditions: for Kochia plant response rating: 500 g ai/ha
Method in brief: as §1

pigweed = experiment: Test C pre-/postemergence herbicide test; format: in vivo, Amaranthus retroflexus; conditions: for Pigweed plant response rating: 500 g ai/ha
Method in brief: as §1

common ragweed = experiment: Test C pre-/postemergence herbicide test; format: in vivo, Ambrosia elatior; design: key to Plant response rating, Ragweed: 0 = no effect, 100 = complete control; conditions: for Ragweed plant response rating: 500 g ai/ha
Method in brief: as §1

velvetleaf = experiment: Test C pre-/postemergence herbicide test; format: in vivo, Abutilon theophrasti; conditions: for Velvetleaf plant response rating: 500 g ai/ha
Method in brief: as §1

chickweed = experiment: Test C postemergence herbicide test; format: in vivo, Stellaria media
Method in brief: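 Visual rating, 0 (no effect) to 100 (complete control), vs. controls at 12–14 d in greenhouse. Postemergence: 1–4-leaf plants, 2–18 cm. Paddy: flooded, barnyardgrass at 2-leaf stage.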

[1] = Postemergence, 500 g ai/ha, 0 to 100 scale, 0 no effect, 100 complete control
[2] = Postemergence, 2000 g ai/ha, 0 to 100 scale, 0 no effect, 100 complete control
[3] = Preemergence, 500 g ai/ha, visual rating, 0 to 100 scale (0 no effect, 100 complete control)
[4] = 31 g ai/ha, preemergence, scale 0 to 100
[5] = 125 g ai/ha, scale 0 (no effect) to 100 (complete control), visual, 12 to 14 days, preemergence
[6] = 250 g ai/ha, scale 0 to 100 (0 no effect, 100 complete control), visual, 12 to 14 days, preemergence
[7] = Postemergence, 250 g ai/ha, scale 0 to 100, 0 no effect, 100 complete control
[8] = postemergence, 125 g ai/ha, scale 0 to 100
[9] = postemergence, 62 g ai/ha, scale 0 to 100
[10] = postemergence, 31 g ai/ha, scale 0 to 100
[11] = Preemergence, 2000 g ai/ha, 0 to 100 scale, 0 no effect, 100 complete control
[12] = Postemergence, 125 g ai/ha, scale 0 to 100, 0 no effect, 100 complete control
[13] = Preemergence, scale 0 to 100, 0 no effect, 100 complete control
[14] = 125 g ai/ha, scale 0-100, preemergence

Structure (SMILES): C=Cn1nc(C(C)(C)C)cc1C(=O)Nc1cccc(C(C)=NO)c1 [Compound 114]
- Foxtail, Giant plant response rating (giant foxtail; [1]): 50
- Plant response rating, Foxtail, Giant (giant foxtail; [2]): 55
- Foxtail, Giant plant response rating (giant foxtail; [3]): 30
- Foxtail, Giant plant response rating (giant foxtail; Preemergence, 2000 g ai/ha, visual rating, 0 to 100 scale (0 no effect, 100 complete control)): 45
- Plant response rating, Crabgrass, Large (large crabgrass; [4]): 100
- Plant response rating (0 = no effect, 100 = complete control), Crabgrass, Large (large crabgrass; 62 g ai/ha, preemergence): 100
- Plant response rating, Crabgrass, Large (large crabgrass; [5]): 100
- Plant response rating, Crabgrass, Large (large crabgrass; [6]): 100
- Plant response rating, Crabgrass, Large (large crabgrass; [7]): 100
- Plant response rating, Crabgrass, Large (large crabgrass; [8]): 100
- Plant response rating, Crabgrass, Large (large crabgrass; [9]): 20
- Plant response rating, Goosegrass (goosegrass; [4]): 20
- Plant response rating (0 = no effect, 100 = complete control), Goosegrass (goosegrass; 62 g ai/ha, preemergence): 40
- Plant response rating, Goosegrass (goosegrass; [5]): 80
- Plant response rating, Goosegrass (goosegrass; [7]): 70
- Plant response rating, Goosegrass (goosegrass; [8]): 60
- Plant response rating, Goosegrass (goosegrass; [9]): 60
- Plant response rating, Kochia (kochia; [4]): 90
- Plant response rating (0 = no effect, 100 = complete control), Kochia (kochia; 62 g ai/ha, preemergence): 90
- Plant response rating, Kochia (kochia; [5]): 90
- Plant response rating, Kochia (kochia; [7]): 100
- Plant response rating, Kochia (kochia; [8]): 80
- Plant response rating, Kochia (kochia; [9]): 80
- Plant response rating, Pigweed (pigweed; [4]): 0
- Plant response rating (0 = no effect, 100 = complete control), Pigweed (pigweed; 62 g ai/ha, preemergence): 100
- Plant response rating, Pigweed (pigweed; [5]): 100
- Plant response rating, Pigweed (pigweed; [7]): 100
- Plant response rating, Pigweed (pigweed; [8]): 100
- Plant response rating, Pigweed (pigweed; [9]): 100
- Plant response rating, Ragweed (common ragweed; [4]): 10
- Plant response rating (0 = no effect, 100 = complete control), Ragweed (common ragweed; 62 g ai/ha, preemergence): 10
- Plant response rating, Ragweed (common ragweed; [5]): 10
- Plant response rating, Ragweed (common ragweed; [7]): 90
- Plant response rating, Ragweed (common ragweed; [8]): 80
- Plant response rating, Ragweed (common ragweed; [9]): 60
- Plant response rating, Velvetleaf (velvetleaf; [4]): 0
- Plant response rating, Velvetleaf (velvetleaf; [5]): 30
- Plant response rating, Velvetleaf (velvetleaf; [7]): 80
- Plant response rating, Velvetleaf (velvetleaf; [8]): 70
- Plant response rating, Velvetleaf (velvetleaf; [9]): 60
- Plant response rating, Chickweed (chickweed; [7]): 100
- Plant response rating, Chickweed (chickweed; [10]): 80
- Plant response rating, Chickweed (chickweed; [9]): 100

Structure (SMILES): C=CCNC(=O)c1cccc(NC(=O)c2cc(C(C)(C)C)nn2CC)c1 [Compound 46]
- Plant response rating, Foxtail, Giant (giant foxtail; [1]): 80
- Plant response rating, Foxtail, Giant (giant foxtail; [2]): 100
- Foxtail, Giant plant response rating (giant foxtail; [3]): 90
- Foxtail, Giant plant response rating (giant foxtail; [11]): 100
- Plant response rating (0 = no effect, 100 = complete control), Crabgrass, Large (large crabgrass; 62 g ai/ha, preemergence): 100
- Plant response rating, Crabgrass, Large (large crabgrass; [5]): 100
- Plant response rating, Crabgrass, Large (large crabgrass; [6]): 100
- Crabgrass, Large plant response rating (large crabgrass; Postemergence, scale 0 to 100): 90
- Plant response rating, Crabgrass, Large (large crabgrass; [12]): 90
- Plant response rating, Crabgrass, Large (large crabgrass; [7]): 90
- Crabgrass, Large plant response rating (large crabgrass; [13]): 100
- Plant response rating (0 = no effect, 100 = complete control), Goosegrass (goosegrass; 62 g ai/ha, preemergence): 60
- Plant response rating, Goosegrass (goosegrass; [5]): 90
- Plant response rating, Goosegrass (goosegrass; [6]): 100
- Goosegrass plant response rating (goosegrass; Postemergence, scale 0 to 100): 80
- Plant response rating, Goosegrass (goosegrass; [12]): 50
- Plant response rating, Goosegrass (goosegrass; [7]): 50
- Goosegrass plant response rating (goosegrass; [13]): 100
- Plant response rating, Goosegrass (goosegrass; [9]): 40
- Plant response rating (0 = no effect, 100 = complete control), Kochia (kochia; 62 g ai/ha, preemergence): 0
- Plant response rating, Kochia (kochia; [5]): 90
- Plant response rating, Kochia (kochia; [6]): 100
- Kochia plant response rating (kochia; Postemergence, scale 0 to 100): 100
- Plant response rating, Kochia (kochia; [7]): 100
- Kochia plant response rating (kochia; [13]): 100
- Plant response rating, Kochia (kochia; [9]): 90
- Plant response rating (0 = no effect, 100 = complete control), Pigweed (pigweed; 62 g ai/ha, preemergence): 20
- Plant response rating, Pigweed (pigweed; [5]): 100
- Plant response rating, Pigweed (pigweed; [6]): 100
- Pigweed plant response rating (pigweed; Postemergence, scale 0 to 100): 100
- Plant response rating, Pigweed (pigweed; [7]): 100
- Pigweed plant response rating (pigweed; [13]): 100
- Plant response rating, Pigweed (pigweed; [9]): 100
- Plant response rating (0 = no effect, 100 = complete control), Ragweed (common ragweed; 62 g ai/ha, preemergence): 10
- Plant response rating, Ragweed (common ragweed; [5]): 40
- Plant response rating, Ragweed (common ragweed; [6]): 90
- Ragweed plant response rating (common ragweed; Postemergence, scale 0 to 100): 80
- Plant response rating, Ragweed (common ragweed; [7]): 80
- Ragweed plant response rating (common ragweed; [13]): 90
- Plant response rating, Ragweed (common ragweed; [9]): 70
- Plant response rating (0 = no effect, 100 = complete control), Velvetleaf (velvetleaf; 62 g ai/ha, preemergence): 90
- Plant response rating, Velvetleaf (velvetleaf; [5]): 100
- Plant response rating, Velvetleaf (velvetleaf; [6]): 100
- Velvetleaf plant response rating (velvetleaf; Postemergence, scale 0 to 100): 80
- Plant response rating, Velvetleaf (velvetleaf; [7]): 80
- Velvetleaf plant response rating (velvetleaf; [13]): 100
- Plant response rating, Velvetleaf (velvetleaf; [9]): 50
- Chickweed plant response rating (chickweed; Postemergence, 500 g ai/ha, scale 0 to 100): 100
- Plant response rating, Chickweed (chickweed; [12]): 70
- Plant response rating, Chickweed (chickweed; [7]): 80
- Plant response rating, Chickweed (chickweed; [9]): 70

Structure (SMILES): C=Cn1nc(C(C)(C)C)cc1C(=O)Nc1cccc(C(=O)NCC)c1 [Compound 33]
- Plant response rating, Foxtail, Giant (giant foxtail; [1]): 70
- Plant response rating, Foxtail, Giant (giant foxtail; [2]): 85
- Foxtail, Giant plant response rating (giant foxtail; [3]): 80
- Foxtail, Giant plant response rating (giant foxtail; [11]): 95
- Plant response rating, Crabgrass, Large (large crabgrass; [4]): 90
- Plant response rating (0 = no effect, 100 = complete control), Crabgrass, Large (large crabgrass; 62 g ai/ha, preemergence): 100
- Plant response rating, Crabgrass, Large (large crabgrass; [14]): 100
- Plant response rating, Crabgrass, Large (large crabgrass; [12]): 50
- Plant response rating, Crabgrass, Large (large crabgrass; [10]): 40
- Plant response rating, Goosegrass (goosegrass; [4]): 20
- Plant response rating (0 = no effect, 100 = complete control), Goosegrass (goosegrass; 62 g ai/ha, preemergence): 60
- Plant response rating, Goosegrass (goosegrass; [14]): 90
- Plant response rating, Goosegrass (goosegrass; [12]): 40
- Plant response rating, Goosegrass (goosegrass; [10]): 40
- Plant response rating, Goosegrass (goosegrass; [9]): 40
- Plant response rating, Kochia (kochia; [4]): 80
- Plant response rating (0 = no effect, 100 = complete control), Kochia (kochia; 62 g ai/ha, preemergence): 100
- Plant response rating, Kochia (kochia; [14]): 100
- Plant response rating, Kochia (kochia; [12]): 90
- Plant response rating, Kochia (kochia; [10]): 60
- Plant response rating, Kochia (kochia; [9]): 90
- Plant response rating, Pigweed (pigweed; [4]): 30
- Plant response rating (0 = no effect, 100 = complete control), Pigweed (pigweed; 62 g ai/ha, preemergence): 50
- Plant response rating, Pigweed (pigweed; [8]): 100
- Plant response rating, Pigweed (pigweed; [10]): 90
- Plant response rating, Pigweed (pigweed; [9]): 100
- Plant response rating, Ragweed (common ragweed; [4]): 0
- Plant response rating (0 = no effect, 100 = complete control), Ragweed (common ragweed; 62 g ai/ha, preemergence): 0
- Plant response rating, Ragweed (common ragweed; [8]): 70
- Plant response rating, Ragweed (common ragweed; [9]): 60
- Plant response rating, Velvetleaf (velvetleaf; [4]): 0
- Plant response rating, Velvetleaf (velvetleaf; [10]): 60
- Plant response rating, Velvetleaf (velvetleaf; [9]): 90
- Plant response rating, Chickweed (chickweed; [12]): 100
- Plant response rating, Chickweed (chickweed; postemergence, 16 g ai/ha, scale 0 to 100): 30
- Plant response rating, Chickweed (chickweed; [10]): 40
- Plant response rating, Chickweed (chickweed; [9]): 90
